Legend:
BT-549 [1] = test: normalised viability (% of control), CellTiter-Blue; higher = more viable cells (about 100 = DMSO control); conditions: 100 nM; incubation time: 72 h
Procedure: (§1)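 DSRT, CellTiter-Blue viability, 72 h incubation. Signal is normalised to DMSO and benzethonium chloride controls. Value is the normalised response at dose 3.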

MFM-223 [2] = test: as above; conditions: 100 nM; incubation time: 72 h
Procedure: as §1

MDA-MB-468 [3] = test: as above; conditions: 100 nM; incubation time: 72 h
Procedure: as §1

MDA-MB-231 [4] = test: drug sensitivity score (DSS), CellTiter-Blue viability (DSS (AUC-based score)); higher = stronger viability inhibition; extreme values may be limits of the assay; conditions: incubation time: 72 h
Procedure: (§2)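 DSRT with the CellTiter-Blue (resazurin reduction) viability readout, fluorescence 560/590 nm, 72 h incubation. Plates were normalised to DMSO and benzethonium chloride controls. DSS is computed from the area under the fitted dose-response curve (5 or 9 concentrations).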

MFM-223 [5] = test: as above; conditions: incubation time: 72 h
Procedure: as §2

BT-549 [6] = test: normalised viability (% of control), CellTiter-Blue; higher = more viable cells (about 100 = DMSO control); conditions: incubation time: 72 h
Outline: (§3)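 Each value is normalised viability at a single listed concentration of the series. Breast cancer cell lines in 384-well plates were incubated 72 h with compound and read by CellTiter-Blue fluorescence at 560/590 nm, with vehicle set to 100 and a positive kill control to 0 on every plate.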

MDA-MB-231 [7] = test: as above; conditions: incubation time: 72 h
Outline: as §3

Hs578T = test: as above; conditions: incubation time: 72 h
Outline: as §3

HCC1937 = test: as above; conditions: incubation time: 72 h
Outline: as §3

HDQ-P1 = test: as above; conditions: incubation time: 72 h
Outline: as §3

SK-BR-3 = test: as above; conditions: incubation time: 72 h
Outline: as §3

CAL-148 = test: as above; conditions: incubation time: 72 h
Outline: as §3

MDA-MB-436 = test: as above; conditions: incubation time: 72 h
Outline: as §3

MFM-223 [8] = test: as above; conditions: incubation time: 72 h
Outline: as §3

CAL-120 = test: as above; conditions: incubation time: 72 h
Outline: as §3

BT-474 = test: as above; conditions: incubation time: 72 h
Outline: as §3

MDA-MB-453 = test: as above; conditions: incubation time: 72 h
Outline: as §3

HCC1143 = test: as above; conditions: incubation time: 72 h
Outline: as §3

MDA-MB-468 [9] = test: as above; conditions: incubation time: 72 h
Outline: as §3

HCC1599 = test: as above; conditions: incubation time: 72 h
Outline: as §3

CAL-51 = test: as above; conditions: incubation time: 72 h
Outline: as §3

DU-4475 = test: as above; conditions: incubation time: 72 h
Outline: as §3

CAL-85-1 = test: as above; conditions: incubation time: 72 h
Outline: as §3

O=S(=O)(c1cccc2cnccc12)N1CCCNCC1 [Fasudil]
Conditions	drug sensitivity score	normalised viability [%]
BT-549 [1]	–	95.6
MDA-MB-231 [4]	0	–
MDA-MB-468 [3]	–	106
MFM-223 [2]	–	93.6
MFM-223 [5]	1.41	–

normalised viability [%]
Conditions	3 nM	10 nM	30 nM	100 nM	1000 nM	10000 nM
BT-474	–	112	–	–	112	126
BT-549 [6]	–	93.3	–	–	95.2	107
CAL-51	118	–	108	116	–	–
CAL-85-1	96.6	–	90.4	93.3	–	–
CAL-120	–	87.9	–	–	84.4	92
CAL-148	81	–	90.1	90.2	–	–
DU-4475	100	–	109	101	–	–
HCC1143	–	85.1	–	–	96.2	80.2
HCC1599	–	99.9	–	–	102	117
HCC1937	–	122	–	–	105	90.6
HDQ-P1	111	–	99	117	–	–
Hs578T	–	98.4	–	–	114	116
MDA-MB-231 [7]	–	98.8	–	–	110	127
MDA-MB-436	–	83.5	–	–	108	107
MDA-MB-453	112	–	116	109	–	–
MDA-MB-468 [9]	–	106	–	–	110	105
MFM-223 [8]	–	102	–	–	89	77.7
SK-BR-3	–	94.7	–	–	95.7	109

CS(=O)(=O)N1CCN(Cc2cc3nc(-c4cccc5[nH]ncc45)nc(N4CCOCC4)c3s2)CC1 [GDC-0941]
Conditions	drug sensitivity score	normalised viability [%]
BT-549 [1]	–	92.8
MDA-MB-231 [4]	8.4	–
MDA-MB-468 [3]	–	84.2
MFM-223 [2]	–	82
MFM-223 [5]	12.7	–

Conditions	normalised viability [%]
BT-474, 10 nM	109
BT-474, 1000 nM	41.3
BT-474, 10000 nM	11
BT-549 [6], 10 nM	85.6
BT-549 [6], 1000 nM	60.9
BT-549 [6], 10000 nM	14.1
CAL-51, 3 nM	117
CAL-51, 30 nM	106
CAL-51, 100 nM	89.4
CAL-85-1, 30 nM	77.7
CAL-85-1, 100 nM	83.5
CAL-120, 10 nM	89.6
CAL-120, 1000 nM	53.7
CAL-120, 10000 nM	20.8
CAL-148, 3 nM	82.4
CAL-148, 30 nM	85.8
CAL-148, 100 nM	83.2
DU-4475, 3 nM	107
DU-4475, 30 nM	98.8
DU-4475, 100 nM	95.5
HCC1143, 10 nM	73.2
HCC1143, 1000 nM	52.1
HCC1143, 10000 nM	21.2
HCC1599, 10 nM	96.8
HCC1599, 1000 nM	55
HCC1599, 10000 nM	28
HCC1937, 10 nM	114
HCC1937, 1000 nM	60.8
HCC1937, 10000 nM	25.5
HDQ-P1, 3 nM	93.6
HDQ-P1, 30 nM	93.8
HDQ-P1, 100 nM	69.3
Hs578T, 10 nM	112
Hs578T, 1000 nM	62.3
Hs578T, 10000 nM	19.6
MDA-MB-231 [7], 10 nM	90.8
MDA-MB-231 [7], 1000 nM	63.4
MDA-MB-231 [7], 10000 nM	35.2
MDA-MB-436, 10 nM	97.7
MDA-MB-436, 1000 nM	68.1
MDA-MB-436, 10000 nM	22.9
MDA-MB-453, 3 nM	109
MDA-MB-453, 30 nM	85.1
MDA-MB-453, 100 nM	76.2
MDA-MB-468 [9], 10 nM	108
MDA-MB-468 [9], 1000 nM	62.8
MDA-MB-468 [9], 10000 nM	17
MFM-223 [8], 10 nM	95.7
MFM-223 [8], 1000 nM	43.5
MFM-223 [8], 10000 nM	13.1
SK-BR-3, 10 nM	92.3
SK-BR-3, 1000 nM	24.1
SK-BR-3, 10000 nM	8.8
